Measured values: ChEMBL document CHEMBL1201862, “PubChem BioAssay data set” (2004)
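Five compound concentrations were applied to cells in 96-well plates for 48 hours; endpoints were derived by simple linear interpolation of the resulting dose-response curve. The concentration for 50% growth inhibition is given as GI50.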 The source made the active and inactive calls. Cut-off read from the data, not from the text of the source: active = GI50 up to about 1.1 µM and inactive = higher.

How the values were obtained:
Experiment in all cases: NCI tumour cell line growth inhibition, 48 h
OVCAR-4 = tested on: OVCAR-4
LOX IMVI = tested on: LOX IMVI
COLO 205 = tested on: COLO 205
KM12 = tested on: KM12
OVCAR-8 = tested on: OVCAR-8
MOLT-4 = tested on: MOLT-4
NCI-H522 = tested on: NCI-H522
OVCAR-3 = tested on: OVCAR-3
RPMI-8226 = tested on: RPMI-8226
A549 = tested on: A549
HOP-92 = tested on: HOP-92
SNB-78 = tested on: SNB-78
NCI-H23 = tested on: NCI-H23
DLD-1 = tested on: DLD-1
RXF 631 = tested on: RXF 631
Malme-3M = tested on: Malme-3M
SF-295 = tested on: SF-295
UACC-257 = tested on: UACC-257
HOP-18 = tested on: HOP-18
SNB-19 = tested on: SNB-19
LXFL 529 = tested on: LXFL 529
HL-60 = tested on: HL-60
SN12C = tested on: SN12C
SW-620 = tested on: SW-620
786-0 = tested on: 786-0
SNB-75 = tested on: SNB-75
TK-10 = tested on: TK-10
OVCAR-5 = tested on: OVCAR-5
HCC 2998 = tested on: HCC 2998
SK-MEL-28 = tested on: SK-MEL-28
HOP-62 = tested on: HOP-62
M14 = tested on: M14
XF498 = tested on: XF498
SF-268 = tested on: SF-268
HCT-15 = tested on: HCT-15
SK-MEL-2 = tested on: SK-MEL-2
SK-OV-3 = tested on: SK-OV-3
ACHN = tested on: ACHN
UO-31 = tested on: UO-31
DMS-273 = tested on: DMS-273
RXF 393 = tested on: RXF 393
HT-29 = tested on: HT-29
EKVX = tested on: EKVX
CCRF-CEM = tested on: CCRF-CEM
DMS-114 = tested on: DMS-114
SK-MEL-5 = tested on: SK-MEL-5
KM-20L2 = tested on: KM-20L2
NCI-H226 = tested on: NCI-H226
U-251 = tested on: U-251
CAKI-1 = tested on: CAKI-1
K562 = tested on: K562
NCI-H460 = tested on: NCI-H460

For `O=C1c2ccccc2CC1C1(O)C(=O)Nc2c(Cl)cc(Cl)cc21` (configuration not stated), the GI50 (OVCAR-4) was 92.5 µM (inactive), the GI50 (LOX IMVI) was 61.8 µM (inactive) and the GI50 (COLO 205) was 75.2 µM (inactive). For the same molecule, the GI50 (KM12) was 47.2 µM (inactive), the GI50 (OVCAR-8) was 39.4 µM (inactive) and the GI50 (MOLT-4) was 30.5 µM (inactive). For the same molecule, the GI50 (NCI-H522) was 17.9 µM (inactive), the GI50 (OVCAR-3) was 53.5 µM (inactive) and the GI50 (RPMI-8226) was 20.8 µM (inactive). The GI50 (A549) was 47.9 µM (inactive), the GI50 (HOP-92) was 53.3 µM (inactive) and the GI50 (SNB-78) was > 100 µM (inactive). For the same molecule, the GI50 (NCI-H23) was 24.9 µM (inactive), the GI50 (DLD-1) was 53.1 µM (inactive) and the GI50 (RXF 631) was > 100 µM (inactive). For the same molecule, the GI50 (Malme-3M) was 79.6 µM (inactive), the GI50 (SF-295) was 47.9 µM (inactive) and the GI50 (UACC-257) was 27 µM (inactive). For the same molecule, the GI50 (HOP-18) was 14.1 µM (inactive), the GI50 (SNB-19) was 37.1 µM (inactive) and the GI50 (LXFL 529) was 18.8 µM (inactive). The GI50 (HL-60) was 35.9 µM (inactive), the GI50 (SN12C) was > 100 µM (inactive) and the GI50 (SW-620) was 35.2 µM (inactive). For the same molecule, the GI50 (786-0) was > 100 µM (inactive), the GI50 (SNB-75) was 61.9 µM (inactive) and the GI50 (TK-10) was > 100 µM (inactive). For the same molecule, the GI50 (OVCAR-5) was > 100 µM (inactive), the GI50 (HCC 2998) was > 100 µM (inactive) and the GI50 (SK-MEL-28) was > 100 µM (inactive). For the same molecule, the GI50 (HOP-62) was 99.5 µM (inactive), the GI50 (M14) was > 100 µM (inactive) and the GI50 (XF498) was 28.4 µM (inactive). The GI50 (SF-268) was 61 µM (inactive), the GI50 (HCT-15) was 42.5 µM and the GI50 (SK-MEL-2) was 97.5 µM (inactive). For the same molecule, the GI50 (SK-OV-3) was > 100 µM (inactive), the GI50 (ACHN) was 64 µM (inactive) and the GI50 (UO-31) was 49.8 µM (inactive). The GI50 (DMS-273) was 68.4 µM (inactive), the GI50 (RXF 393) was 23.6 µM (inactive) and the GI50 (HT-29) was 67.8 µM (inactive). The GI50 (EKVX) was 67 µM (inactive), the GI50 (CCRF-CEM) was 26.6 µM (inactive) and the GI50 (DMS-114) was 21.9 µM (inactive). For the same molecule, the GI50 (SK-MEL-5) was 27.9 µM (inactive), the GI50 (KM-20L2) was > 100 µM (inactive) and the GI50 (NCI-H226) was 44.2 µM (inactive). For the same molecule, the GI50 (U-251) was 54.8 µM (inactive), the GI50 (CAKI-1) was > 100 µM (inactive) and the GI50 (K562) was 30.8 µM (inactive). The GI50 (NCI-H460) was 99.8 µM (inactive).
